{"source": "patent US10131717B2", "about": "“Topically administered, skin-penetrating glycosaminoglycan formulations suitable for use in cosmetic and pharmaceutical applications” (London Health Sciences Centre Research Inc., priority 2010, dated 2018)", "key": {"human dermal fibroblasts": {"system": "human dermal fibroblasts", "assay": "Hyaluronan cell coats on cultured human dermal fibroblasts (fluorescent nanosphere exclusion)", "format": "cell-based", "details": "hyaluronan 500 μg/mL (350 kDa) or HA-PE-1 25 μg/mL, 1 hour; compared to PBS control; FIG. 1", "method": "The suitability of the present compositions was assessed by determining its ability to encase/surround cultured dermal fibroblasts grown from a punch biopsy of human skin. Punch biopsies were placed in a sterile tissue culture dish (35×10 mm, tissue culture dish) and cut with small (e.g., 19 G) sterile needles into small fragments. The fragments were allowed to dry briefly (e.g., no more than 10 minutes) to the bottom of the tissue culture dish to promote adherence of the tissue fragments. Dulbecco's modified Eagles Medium (DMEM), supplements with 10% fetal calf serum (FCS) was then gently added and the culture is then placed in a humidified 37° C. incubator supplemented with 5% CO2 for approximately one week. […]\nIn the images shown in FIG. 1, the hyaluronan cell coat is observed as a dark space since small fluorescent beads are excluded by the coat as denoted by the arrow within the image. Cells without coats […] are entirely covered by the fluorescent beads."}, "[1]": {"system": "senescent human fibroblasts", "assay": "Percent of cells with hyaluronan coats and coat size in senescent human fibroblasts", "format": "cell-based", "details": "FIG. 2", "method": "Modified hyaluronan (HA-PE-1), prepared according to Example 2, or hyaluronan alone (350 kDA; 10 mg/mL stock solution in saline) was added to senescent human fibroblasts in increasing concentrations (0-100 μg/mL).\nThe effect of the addition of modified hyaluronan (HA-PE-1; 50 μg/mL) vs. hyaluronan alone (50 μg/mL) on the cell coat area of the cells was quantified using image analysis (Elements 3.1, Nikon). […] Values are means and S.E.M. for 10 samples."}, "[2]": {"system": "female BL6 wild-type mice", "assay": "Comparison of ability to penetrate the skin barrier of mice (hyaluronan staining; treated vs untreated area)", "format": "in vivo, mouse", "text": "HA-PE-2, prepared as described in Example 3, hyaluronan mixed with, but not covalently linked to, lipids in the lecithins present in Example 3 (see Example 1), and hyaluronan alone (no additional phospholipid), were each formulated with a NIVEA Creme cosmetic base cream (1:1, v/v) as described in Example 4. The creams were then applied to the shaved backs (0.18 g HA-PE-2/application, 40×30 mm shaved area) of 9-month old female BL6 wild-type mice once daily for 4 days. After this time, one group of animals was euthanized and processed according to the procedure described in Example 9. A second group of animals were left without further treatment for an additional […] and euthanized/processed as described in Example 9 on day 7.\nSince the amount of endogenous hyaluronan in skin can vary with location, internal controls were designed to evaluate hyaluronan staining of treated and control skin were developed to confirm the difference between the treated vs. untreated skin area. HA-PE-2 and control creams (hyaluronan only) were applied to the shaved backs of mice as previously described. Areas of treatment were marked (hair in the adjacent untreated margins was removed with Nair™ and the punch aligned to include the treated and untreated region; tissue punches were orientated in small tissue baskets to keep the tissue in the correct orientation throughout processing and marked with a histology marker pen) and tissue was harvested/processed as previously described (Example 9)."}, "skin barrier": {"system": "skin barrier", "details": "Kaya et al.; cited from earlier work"}}, "data": [{"substance": "hyaluronan", "values": [{"measurement": "size of the hyaluronan coat (exclusion of fluorescent beads)", "setting": "human dermal fibroblasts", "result": "little additional effect"}, {"measurement": "concentration at which the percentage of cells with coats reached a plateau", "setting": "[1]; 0-100 μg/mL", "result": 10, "unit": "µg/mL"}, {"measurement": "percentage of cells that exhibited hyaluronan coats", "setting": "[1]; increasing concentrations 0-100 μg/mL", "result": "fewer cells with hyaluronan coats"}, {"measurement": "hyaluronan staining / hyaluronan penetrating the skin barrier", "setting": "[2]; creams once daily for 4 days, p<0.000001, FIG. 9, 10", "result": "negligible amounts of hyaluronan penetrating the skin barrier"}, {"measurement": "hyaluronan staining in keratinocytes following cessation of treatment", "setting": "[2]; day 7, treatment stopped after day 4, FIG. 9, 10", "result": "remained negligible"}, {"measurement": "hyaluronan staining at the application edge, treated vs untreated area of skin", "setting": "[2]; internal control, p<0.000001, FIG. 11, 12", "result": "a distinct margin of staining was not observed"}, {"measurement": "retention in skin of topically applied hyaluronan (literature)", "setting": "skin barrier", "result": "poorly retained in the epidermal layer"}]}]}
